In US8202910B2 (Sequella, Inc., priority 2006, dated 2012):
Values after ≈ are worked out from the molar mass of the structure shown. Values joined by “and” are separate entries in the source; they are usually repeats but may differ in a detail not shown here. Identical values can stand only once. Like-named read-outs stand apart in the source and are kept apart here.

Key:
M. fortuitum = experiment: Spectrum of activity MIC, rapid-grower, broth microdilution (NCCLS M24-A); type: cell-based; conditions: Mycolicibacterium fortuitum; all strains tested
[1] = type: in vitro ADME; conditions: 6 h
Description: Initially, analytical methods for determination of the compounds had been developed that allowed to carry out all the PK experiments, sec FIG. 29. Here is a brief description of the experiment: (1) plasma spiked with tested compounds and 10 uL of Terfenadine or plasma samples (200 uL) added; (2) ACN (2 mL) added to precipitate protein and spin at 2,500 rpm; (3) evaporate supernatant to dryness; (4) add 200 uL of the diluting solvent: methanol (with 0.1% of trifluoroacetic acid): ammonium acetate (80/20); (5) vortex, spin, and use supernatant; (6) run LC/MS/MS on Sciex API 3000.
Biostability studies of the compounds in plasma were carried out using concentrations 1 and 15 mg/ml. The compounds were incubated for 1, 2, 3 & 6 hr at 37° C. (Table 18).

dopamine receptor D1 = target: T1, dopamine receptor D1 (Homo sapiens, UniProt P21728); experiment: CEREP receptor binding, D1; conditions: tested at 10 μM; read-out: inhibition of control specific binding
T1 construct: CEREP (contract testing)
Description: (§1) In vitro testing for safety pharmacology and early ADMET (Absorption, Distribution, Metabolism, Excretion, Toxicity) studies of compound 109 were contracted out to CEREP (15318 NE 95th Street, Redmond, Wash., 98052, USA www.cerep.com) under a service agreement and included evaluation of inhibitory binding to a panel of 27 standard receptors and three transporters (See FIG. 60 (Table 31) and FIG. 61 (Table 32)) which included: adenosine receptors (A1 and A2A), adrenergic receptors (alpha 1, alpha 2, beta 1), angiotensin II receptor (AT1), benzodiazapene receptor (BZD), bradykinin receptor (B2), cholecystokinin receptor (CCK1), dopamine receptors (D1, D2S), endothelin receptor (ETA), GABA receptor (GABA), glutamate receptor (NMDA), histamine receptor (H1 central), melanocortin receptor (MC4), muscarinic receptor (M, non-selective), neurokinin receptor (NK1), neuropeptide Y receptor (Y), nicotinic receptor (neuronal, alpha-BGTX-insensitive), opiate receptor (non-selective opiate), orphanin receptor (ORL1), phencyclidine receptor (PCP), serotonin receptor (5-HT), sigma receptor (sigma non-selective), steroid receptor (glucocorticoid receptor, GR), and NE, DA, and 5-HT transporters.
(§2) The specific ligand binding to the receptors is defined as the difference between the total binding and the nonspecific binding determined in the presence of an excess of unlabelled ligand.

human CYP2D6 = human CYP2D6 (Homo sapiens, UniProt P10635); experiment: Metabolism by CYP2D6; type: in vitro ADME
Description: Two of the groups contained oxidized metabolites. […] Based on the finding that SQ109 was metabolized rapidly by CYP, it is possible that its antimycobacterial activity may come from one of its metabolites. It is conceivable that SQ109 is a prodrug and requires activation by mycobacterial CYP. We speculate that when SQ109 is used in combination with rifampicin, the latter induces certain CYP activity within the Mycobacteria. Elevated CYP activity activates the SQ109 prodrug more efficiently, resulting in an apparent synergistic activity of the two drugs.

[2] = target: T2, melanocortin MC4 receptor (Homo sapiens, UniProt P32245); experiment: CEREP receptor binding, MC4; conditions: tested at 10 μM; read-out: inhibition of control specific binding
T2 construct: CEREP (contract testing)
Description: as §1, §2

Streptococcus pneumoniae = experiment: Spectrum of activity MIC (NCCLS); type: cell-based
Description: (§3) Compound 109 was tested against a representative panel of commonly encountered clinical microorganisms comprising opportunistic pathogens, target pathogens and normal human flora. The spectrum of activity of compound 109 was evaluated by performing antimicrobial susceptibility testing against a collection of aerobic and anaerobic bacteria, fungi, and mycobacteria. MICs for all organisms were established using the appropriate NCCLS (National Committee for Clinical Laboratory Standards) recommended standard methods and quality control strains.

Helicobacter pylori = experiment: Spectrum of activity MIC (NCCLS); type: cell-based; conditions: all three strains tested
Description: as §3

enterococci = experiment: Spectrum of activity MIC (NCCLS); type: cell-based; conditions: all species of enterococci tested
Description: as §3

Staphylococci = experiment: Spectrum of activity MIC (NCCLS); type: cell-based; conditions: all Staphylococci tested
Description: as §3

Haemophilus influenzae = experiment: Spectrum of activity MIC (NCCLS); type: cell-based; conditions: three isolates
Description: as §3

[3] = tested on: RIF^R M. tuberculosis isolate 2482; experiment: microbe, parasite or virus in culture; type: cell-based; conditions: Mycobacterium tuberculosis, read-out: MIC (BACTEC)
[4] = tested on: H37Rv strain of Mycobacterium tuberculosis; experiment: microbe, parasite or virus in culture; type: cell-based
M. kansasii = experiment: Spectrum of activity MIC, MOTT, agar proportion method; type: cell-based; conditions: Mycobacterium kansasii; three tested
[5] = tested on: monkey kidney cells (Vero); experiment: In vitro toxicity, Vero cells; type: cell-based; conditions: Primates
Description: Twenty six compounds (including 37, 59 and 109) were tested in an in vitro model of toxicity using monkey kidney cells (Vero) and human cervical cancer cells (HeLa) using methods well known to those skilled in the art. The data from this toxicity testing and the MIC data were used to calculate a selectivity index (SI), the ratio of IC50:MIC (Table 15). Selectivity Indexes were ranging from 1.76 to 16.67.

Aspergillus fumigatus = experiment: Spectrum of activity MIC, broth microdilution NCCLS M38-A (mold); type: cell-based; conditions: three isolates
Description: Compound 109 was tested against a representative panel of commonly encountered clinical microorganisms comprising opportunistic pathogens, target pathogens and normal human flora. The spectrum of activity of compound 109 was evaluated by performing recommended broth microdilution methods. NCCLS M27-A2, 2003 for yeast and NCCLS M38-A, 2003 for mold.

[6] = tested on: M. tuberculosis H37Rv (Pasteur); experiment: Rapid in vivo model of TB, body weight of infected mice; design: species or system C3H female mice

T2 sequence (P32245 whole entry): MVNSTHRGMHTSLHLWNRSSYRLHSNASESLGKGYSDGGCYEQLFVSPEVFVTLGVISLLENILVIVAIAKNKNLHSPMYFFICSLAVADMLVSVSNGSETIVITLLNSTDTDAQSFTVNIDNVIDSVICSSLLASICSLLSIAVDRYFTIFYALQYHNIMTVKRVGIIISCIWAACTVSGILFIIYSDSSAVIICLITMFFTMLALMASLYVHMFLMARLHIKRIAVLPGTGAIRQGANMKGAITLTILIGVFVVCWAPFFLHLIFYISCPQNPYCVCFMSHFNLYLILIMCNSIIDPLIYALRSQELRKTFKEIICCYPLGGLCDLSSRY
T1 sequence (P21728 whole entry): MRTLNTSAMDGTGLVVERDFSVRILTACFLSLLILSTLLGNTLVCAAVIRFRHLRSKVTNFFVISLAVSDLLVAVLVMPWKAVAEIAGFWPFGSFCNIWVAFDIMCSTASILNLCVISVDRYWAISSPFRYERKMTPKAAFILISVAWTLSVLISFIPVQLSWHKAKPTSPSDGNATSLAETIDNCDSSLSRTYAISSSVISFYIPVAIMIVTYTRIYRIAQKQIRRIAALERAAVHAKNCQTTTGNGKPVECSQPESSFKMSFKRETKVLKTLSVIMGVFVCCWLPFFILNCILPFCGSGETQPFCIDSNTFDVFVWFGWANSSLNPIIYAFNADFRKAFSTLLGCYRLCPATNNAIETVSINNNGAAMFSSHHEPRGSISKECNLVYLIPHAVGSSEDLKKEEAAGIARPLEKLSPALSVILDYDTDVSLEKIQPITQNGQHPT
Chain of human CYP2D6 (P10635 whole entry): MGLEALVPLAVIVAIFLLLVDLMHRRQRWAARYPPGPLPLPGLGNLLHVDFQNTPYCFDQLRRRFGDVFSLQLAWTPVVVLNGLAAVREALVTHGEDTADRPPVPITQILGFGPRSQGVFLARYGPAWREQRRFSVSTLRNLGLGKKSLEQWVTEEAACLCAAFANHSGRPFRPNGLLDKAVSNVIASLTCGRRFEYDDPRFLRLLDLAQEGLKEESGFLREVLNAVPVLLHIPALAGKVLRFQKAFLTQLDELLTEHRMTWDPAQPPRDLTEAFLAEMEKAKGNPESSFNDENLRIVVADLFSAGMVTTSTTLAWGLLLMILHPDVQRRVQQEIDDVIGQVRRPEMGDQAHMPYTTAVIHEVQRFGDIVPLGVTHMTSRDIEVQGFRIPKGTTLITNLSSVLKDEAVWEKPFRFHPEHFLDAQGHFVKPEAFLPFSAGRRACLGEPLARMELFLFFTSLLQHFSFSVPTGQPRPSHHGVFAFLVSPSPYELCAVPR

## CC(C)=CCC/C(C)=C/CNCCNC1C2CC3CC(C2)CC1C3 (centres unmarked) [Compound 109, N-Geranyl-N′-(2-adamanthyl)ethane-1,2-diamine]
M. fortuitum
  MIC: 1 µg/mL (≈ 3.03 µM)
[1]; dog
  Biostability in plasma (% ↓): 40% ↓
[1]; human
  Biostability in plasma (% ↓): 30% ↓
[1]; mouse
  Biostability in plasma (% ↓): stable
[1]; rat
  Biostability in plasma (% ↓): stable
Dopamine receptor D1
  inhibition at 10 µM: 51%
Human CYP2D6
  metabolism by CYP: metabolized
[2]
  inhibition at 10 µM: 90%
Streptococcus pneumoniae
  MIC: 4 to 8 µg/mL (≈ 12.1 to 24.2 µM)
Helicobacter pylori
  MIC: 4 µg/mL (≈ 12.1 µM)
enterococci
  MIC: 16 to 64 µg/mL (≈ 48.4 to 194 µM)
Staphylococci
  MIC: 16 to 32 µg/mL (≈ 48.4 to 96.8 µM)
Haemophilus influenzae
  MIC: 1 to 32 µg/mL (≈ 3.03 to 96.8 µM)
[3]
  MIC: 0.32 µg/mL (≈ 0.968 µM)
[4]
  MIC: 1.953 µM and 1.95 µM
[4]; Mycobacterium tuberculosis, H37RV, Table 10, from uM and MW, read-out: MIC
  MIC: 0.879 µg/mL
[4]; Mycobacterium tuberculosis, H37RV, Table 10, read-out: MIC
  MIC: 1.95 µM
[4]; Mycobacterium tuberculosis, H37RV, Table 15, read-out: MIC
  MIC: 1.56 µM
[4]; Mycobacterium tuberculosis, H37RV, previously determined, read-out: MIC by micro-broth dilution
  MIC: 0.2 µM and 0.11 µg/mL
[4]; Mycobacterium tuberculosis, H37RV, read-out: MIC
  MIC: 1.95 µM
M. kansasii
  MIC: 16 µg/mL (≈ 48.4 µM)
[5]
  IC50: 26 µM
Aspergillus fumigatus
  MIC: 16 µg/mL (≈ 48.4 µM)
[6]; SQ109 10 mg/kg + RIF 2 mg/kg orally, 6 mice, by the 3 wk, uninfected control 24.5 g, untreated 17 g
  average body weight: 24.3 grams
[6]; SQ109 in combination with PZA (50 mg/kg)
  body weight of infected mice: slight improvement
[6]; compound 109 (10 mg/kg) in combination with Rifampicin (2 mg/kg)
  body weight of infected mice: comparable to non-infected controls
[6]; compound 109 (10 mg/kg) in combination with Rifampicin (2 mg/kg), listed as SQ109
  body weight of infected mice: fully prevented body weight loss
[6]; compound 109 in combination with EMB (10 mg/kg)
  body weight of infected mice: closer to placebo treated controls
[6]; compound 109 in combination with EMB (10 mg/kg), listed as SQ109
  body weight of infected mice: No effect
[6]; compound 109 in combination with INH (1 mg/kg)
  body weight of infected mice: comparable to non-infected controls
[6]; compound 109 in combination with INH (1 mg/kg), listed as SQ109
  body weight of infected mice: enhanced activity
[6]; compound 109 in combination with Moxi (10 mg/kg)
  body weight of infected mice: closer to placebo treated controls
[6]; compound 109 in combination with Moxi (10 mg/kg), listed as SQ109
  body weight of infected mice: antagonistic effect
[6]; single drug alone (SQ109 10 mg/kg; RIF 2 mg/kg), by the 3 wk
  average weight: 21.3 g
[6]; single drug alone (SQ109 10 mg/kg; Rifampin 2 mg/kg)
  body weight of infected mice: closer to placebo treated controls
